Publication PMC5218480 (PLoS ONE, 2017)

Test system: MV-4-11 cells
Test: Gene expression microarray analysis (Affymetrix PrimeView) and GSEA
Assay type: cell-based, human
Set-up: RFU PODN (11730768_x_at) / Fold change /veh PODN (11730768_x_at) / RFU LINC00158 (11744669_a_at) / Fold change /veh LINC00158 (11744669_a_at) / RFU DUSP10 (11751237_a_at) / Fold change /veh DUSP10 (11751237_a_at) / RFU ID3 (11757404_x_at) / Fold change /veh ID3 (11757404_x_at) / RFU PLEKHG5 (11737974_s_at) / Fold change /veh PLEKHG5 (11737974_s_at) / RFU LRRC4B (11730491_at) / Fold change /veh LRRC4B (11730491_at) / RFU GIMAP4 (11747438_a_at) / Fold change /veh GIMAP4 (11747438_a_at) / RFU KRT8 (11758183_x_at) / Fold change /veh KRT8 (11758183_x_at) / RFU CNN1 (11734310_a_at) / Fold change /veh CNN1 (11734310_a_at) / RFU VPS37D (11726825_at) / Fold change /veh VPS37D (11726825_at) / RFU C10orf10 (11716522_x_at) / Fold change /veh C10orf10 (11716522_x_at) / RFU KIR2DL2 /// KIR2DL4 /// KIR2DL5A /// KIR2DL5B /// KIR2DS1 /// KIR2DS2 /// KIR2DS3 /// KIR2DS4 /// KIR3DL3 /// KIR3DL3 /// KIR3DS1 (11738374_at) / Fold change /veh KIR2DL2 /// KIR2DL4 /// KIR2DL5A /// KIR2DL5B /// KIR2DS1 /// KIR2DS2 /// KIR2DS3 /// KIR2DS4 /// KIR3DL3 /// KIR3DL3 /// KIR3DS1 (11738374_at) / RFU C1QL1 (11718748_at) / Fold change /veh C1QL1 (11718748_at) / RFU TMPRSS4 (11747572_a_at) / Fold change /veh TMPRSS4 (11747572_a_at) / RFU HAMP (11756126_x_at) / Fold change /veh HAMP (11756126_x_at) / RFU RNFT2 (11725882_a_at) / Fold change /veh RNFT2 (11725882_a_at) / RFU NR4A2 (11747474_a_at) / Fold change /veh NR4A2 (11747474_a_at) / RFU ABCC12 (11746883_a_at) / Fold change /veh ABCC12 (11746883_a_at) / RFU TMEM136 (11760407_x_at) / Fold change /veh TMEM136 (11760407_x_at) / RFU CLDN22 /// WWC2 (11732394_at) / Fold change /veh CLDN22 /// WWC2 (11732394_at) / RFU HLA-DPB1 (11760878_x_at) / Fold change /veh HLA-DPB1 (11760878_x_at) / RFU SPINT1 (11716480_a_at) / Fold change /veh SPINT1 (11716480_a_at) / RFU GAP43 (11754022_s_at) / Fold change /veh GAP43 (11754022_s_at) / RFU A4GNT (11735810_at) / Fold change /veh A4GNT (11735810_at) / RFU PRB3 (11715151_x_at) / Fold change /veh PRB3 (11715151_x_at) / RFU TUBB4B (11761932_at) / Fold change /veh TUBB4B (11761932_at) / RFU CAPN14 (11732068_a_at) / Fold change /veh CAPN14 (11732068_a_at) / RFU TMCC2 (11721928_a_at) / Fold change /veh TMCC2 (11721928_a_at) / RFU IRGQ (11745062_a_at) / Fold change /veh IRGQ (11745062_a_at) / RFU FAM174B (11720279_a_at) / Fold change /veh FAM174B (11720279_a_at) / RFU TMPRSS4 (11748680_a_at) / Fold change /veh TMPRSS4 (11748680_a_at) / RFU FAM212B (11763350_a_at) / Fold change /veh FAM212B (11763350_a_at) / RFU PLEKHG5 (11743358_a_at) / Fold change /veh PLEKHG5 (11743358_a_at) / RFU ZSCAN30 (11745921_a_at) / Fold change /veh ZSCAN30 (11745921_a_at) / RFU CMKLR1 (11741424_a_at) / Fold change /veh CMKLR1 (11741424_a_at) / RFU LOC101060620 /// MAPK8IP1 (11723275_at) / Fold change /veh LOC101060620 /// MAPK8IP1 (11723275_at) / RFU SPTSSB (11747773_x_at) / Fold change /veh SPTSSB (11747773_x_at) / RFU PRSS12 (11739890_at) / Fold change /veh PRSS12 (11739890_at) / RFU BIN1 (11741810_x_at) / Fold change /veh BIN1 (11741810_x_at) / RFU WNT11 (11732464_a_at) / Fold change /veh WNT11 (11732464_a_at) / RFU C10orf10 (11716521_a_at) / Fold change /veh C10orf10 (11716521_a_at) / RFU C5orf56 (11738089_at) / Fold change /veh C5orf56 (11738089_at) / RFU CYB561 (11721691_x_at) / Fold change /veh CYB561 (11721691_x_at) / RFU ANKRD19P (11752326_a_at) / Fold change /veh ANKRD19P (11752326_a_at) / RFU OR2T12 /// OR2T33 /// OR2T8 (11738714_s_at) / Fold change /veh OR2T12 /// OR2T33 /// OR2T8 (11738714_s_at) / RFU VCAN (11748164_a_at) / Fold change /veh VCAN (11748164_a_at) / RFU JSRP1 (11732532_at) / Fold change /veh JSRP1 (11732532_at) / RFU KRTAP10-11 (11738290_x_at) / Fold change /veh KRTAP10-11 (11738290_x_at) / RFU MYO3A (11730013_a_at) / Fold change /veh MYO3A (11730013_a_at) / RFU EBF3 (11725865_a_at) / Fold change /veh EBF3 (11725865_a_at) / RFU CAMK2N1 (11719241_x_at) / Fold change /veh CAMK2N1 (11719241_x_at) / RFU C5orf56 (11738088_a_at) / Fold change /veh C5orf56 (11738088_a_at) / RFU OLFML3 (11715873_a_at) / Fold change /veh OLFML3 (11715873_a_at) / RFU LOC100653217 /// NTM (11731650_a_at) / Fold change /veh LOC100653217 /// NTM (11731650_a_at) / RFU MAPK11 (11762145_a_at) / Fold change /veh MAPK11 (11762145_a_at) / RFU FIZ1 (11724087_x_at) / Fold change /veh FIZ1 (11724087_x_at) / RFU OASL (11726364_x_at) / Fold change /veh OASL (11726364_x_at) / RFU SOX15 (11748057_x_at) / Fold change /veh SOX15 (11748057_x_at) / RFU CD79A (11719716_a_at) / Fold change /veh CD79A (11719716_a_at) / RFU HIST1H1D (11736915_at) / Fold change /veh HIST1H1D (11736915_at) / RFU CASKIN2 (11723855_a_at) / Fold change /veh CASKIN2 (11723855_a_at) / RFU LOC730098 (11760151_x_at) / Fold change /veh LOC730098 (11760151_x_at) / RFU OR4N2 (11742367_at) / Fold change /veh OR4N2 (11742367_at) / RFU PRRT2 (11749266_a_at) / Fold change /veh PRRT2 (11749266_a_at) / RFU SNX32 (11753110_a_at) / Fold change /veh SNX32 (11753110_a_at) / RFU CDHR5 (11726645_a_at) / Fold change /veh CDHR5 (11726645_a_at) / RFU RCAN1 (11760418_a_at) / Fold change /veh RCAN1 (11760418_a_at) / RFU FAM167A (11723789_a_at) / Fold change /veh FAM167A (11723789_a_at) / RFU FAM26E (11764081_at) / Fold change /veh FAM26E (11764081_at) / RFU ISYNA1 (11749810_s_at) / Fold change /veh ISYNA1 (11749810_s_at) / RFU ACY1 (11761880_at) / Fold change /veh ACY1 (11761880_at) / RFU 11764098_at / Fold change /veh 11764098_at / RFU SAMD14 (11745864_x_at) / Fold change /veh SAMD14 (11745864_x_at) / RFU NPB (11741838_a_at) / Fold change /veh NPB (11741838_a_at) / RFU TMPRSS6 (11731388_a_at) / Fold change /veh TMPRSS6 (11731388_a_at) / RFU KRTAP10-2 (11738614_at) / Fold change /veh KRTAP10-2 (11738614_at) / RFU ARHGAP8 /// PRR5-ARHGAP8 (11727945_x_at) / Fold change /veh ARHGAP8 /// PRR5-ARHGAP8 (11727945_x_at) / RFU KRTAP5-7 /// NADSYN1 (11734609_at) / Fold change /veh KRTAP5-7 /// NADSYN1 (11734609_at) / RFU RASL12 (11751679_a_at) / Fold change /veh RASL12 (11751679_a_at) / RFU CDKN2B (11736163_a_at) / Fold change /veh CDKN2B (11736163_a_at) / RFU PRF1 (11729649_at) / Fold change /veh PRF1 (11729649_at) / RFU, ZNF638 /// ZNF638-IT1 / Fold change vs veh, ZNF638 /// ZNF638-IT1 / RFU, PANK3 / Fold change vs veh, PANK3 / RFU, SH3YL1 / Fold change vs veh, SH3YL1 / RFU, ZEB2 / Fold change vs veh, ZEB2 / RFU, NRIP1 / Fold change vs veh, NRIP1 / RFU, PTTG1IP / Fold change vs veh, PTTG1IP / RFU, CAPN2 / Fold change vs veh, CAPN2 / RFU, MED14 / Fold change vs veh, MED14 / RFU, SNORA58 / Fold change vs veh, SNORA58 / RFU, C1orf63 / Fold change vs veh, C1orf63 / RFU, LRRFIP1 / Fold change vs veh, LRRFIP1 / RFU, NDUFAF7 / Fold change vs veh, NDUFAF7 / RFU, SLC12A2 / Fold change vs veh, SLC12A2 / RFU, IBTK / Fold change vs veh, IBTK / RFU, ESF1 / Fold change vs veh, ESF1 / Fold change vs veh, TMEM50B / RFU, TAOK1 / Fold change vs veh, TAOK1 / RFU, ACBD3 / Fold change vs veh, ACBD3 / RFU, TMA16 / Fold change vs veh, TMA16 / RFU, RWDD3 / Fold change vs veh, RWDD3 / RFU, BCAT1 / Fold change vs veh, BCAT1 / RFU, EDEM3 / Fold change vs veh, EDEM3 / RFU, TMEM33 / Fold change vs veh, TMEM33 / RFU, WDR75 / Fold change vs veh, WDR75 / RFU, AHCTF1 / Fold change vs veh, AHCTF1 / RFU, TFRC / Fold change vs veh, TFRC / RFU, ZDHHC17 / Fold change vs veh, ZDHHC17 / RFU, NOM1 / Fold change vs veh, NOM1 / RFU, ARL8B / Fold change vs veh, ARL8B / RFU, ZBTB11 / Fold change vs veh, ZBTB11 / RFU, TAMM41 / Fold change vs veh, TAMM41 / RFU, KIAA1704 /// LOC100996395 / Fold change vs veh, KIAA1704 /// LOC100996395 / RFU, ING1 / Fold change vs veh, ING1 / RFU, TRMT61B / Fold change vs veh, TRMT61B / RFU, FUBP3 / Fold change vs veh, FUBP3 / RFU, TP53 / Fold change vs veh, TP53 / RFU, TNKS2 / Fold change vs veh, TNKS2 / RFU, ZFP14 / Fold change vs veh, ZFP14 / RFU, ACTR2 / Fold change vs veh, ACTR2 / RFU, PPP3R1 / Fold change vs veh, PPP3R1 / RFU, PIK3R1 / Fold change vs veh, PIK3R1 / RFU, HNRNPA1 / Fold change vs veh, HNRNPA1 / RFU, RNF170 / Fold change vs veh, RNF170 / RFU, ZNF28 / Fold change vs veh, ZNF28 / RFU, RNGTT / Fold change vs veh, RNGTT / RFU, OGT / Fold change vs veh, OGT / RFU, BRD1 / Fold change vs veh, BRD1 / RFU, MARS / Fold change vs veh, MARS / RFU, ZNF655 / Fold change vs veh, ZNF655 / RFU, FAHD1 / Fold change vs veh, FAHD1 / RFU, BDP1 / Fold change vs veh, BDP1 / RFU, LRRCC1 / Fold change vs veh, LRRCC1 / RFU, ARID1A / Fold change vs veh, ARID1A / RFU, ZNF146 / Fold change vs veh, ZNF146 / RFU, ZNF330 / Fold change vs veh, ZNF330 / RFU, GPN3 / Fold change vs veh, GPN3 / RFU, C9orf123 / Fold change vs veh, C9orf123 / RFU, N4BP2L2 / Fold change vs veh, N4BP2L2 / RFU, ARFIP1 / Fold change vs veh, ARFIP1 / RFU, FAM179B / Fold change vs veh, FAM179B / RFU, BCL10 / Fold change vs veh, BCL10 / RFU, UHRF1BP1L / Fold change vs veh, UHRF1BP1L / RFU, BET1 / Fold change vs veh, BET1 / RFU, CNOT2 / Fold change vs veh, CNOT2 / RFU, ZNF268 / Fold change vs veh, ZNF268 / Fold change vs veh, ZNF507 / RFU, DGCR2 / Fold change vs veh, DGCR2 / RFU, WDSUB1 / Fold change vs veh, WDSUB1 / Fold change vs veh, HSP90B1 /// MIR3652 / RFU, ADSS / Fold change vs veh, ADSS / RFU, GK / Fold change vs veh, GK / RFU, ZNF148 / Fold change vs veh, ZNF148 / RFU, TAF9 / Fold change vs veh, TAF9 / RFU, SLC1A5 / Fold change vs veh, SLC1A5 / RFU, SLMO2 / Fold change vs veh, SLMO2 / RFU, ABCC4 / Fold change vs veh, ABCC4 / RFU, LOC101060439 /// RAP1B / Fold change vs veh, LOC101060439 /// RAP1B / RFU, RFX7 / Fold change vs veh, RFX7 / RFU, GTPBP10 / Fold change vs veh, GTPBP10 / RFU, CNEP1R1 / Fold change vs veh, CNEP1R1 / RFU, BIVM-ERCC5 /// ERCC5 / Fold change vs veh, BIVM-ERCC5 /// ERCC5 / RFU, ILF3 / Fold change vs veh, ILF3 / RFU 11762660_at / Fold change /veh 11762660_at / RFU VCAN (11757783_s_at) / Fold change /veh VCAN (11757783_s_at) / RFU DDX43 (11728927_at) / Fold change /veh DDX43 (11728927_at) / RFU KRT8 (11758188_x_at) / Fold change /veh KRT8 (11758188_x_at) / RFU NKD1 (11759106_at) / Fold change /veh NKD1 (11759106_at) / RFU SRD5A1 (11742802_a_at) / Fold change /veh SRD5A1 (11742802_a_at) / RFU TPSAB1 /// TPSB2 (11721975_s_at) / Fold change /veh TPSAB1 /// TPSB2 (11721975_s_at) / RFU GSTM3 (11746129_a_at) / Fold change /veh GSTM3 (11746129_a_at) / RFU IL23R (11737362_x_at) / Fold change /veh IL23R (11737362_x_at) / RFU TMEM51 (11727254_a_at) / Fold change /veh TMEM51 (11727254_a_at) / RFU PIWIL2 (11732686_x_at) / Fold change /veh PIWIL2 (11732686_x_at) / RFU ORM1 (11744905_x_at) / Fold change /veh ORM1 (11744905_x_at) / RFU CCDC152 (11743942_at) / Fold change /veh CCDC152 (11743942_at) / RFU ECM1 (11717891_a_at) / Fold change /veh ECM1 (11717891_a_at) / RFU IL23R (11748794_a_at) / Fold change /veh IL23R (11748794_a_at) / RFU TNFAIP8L3 (11732012_x_at) / Fold change /veh TNFAIP8L3 (11732012_x_at) / RFU MBOAT4 (11741988_at) / Fold change /veh MBOAT4 (11741988_at) / RFU 11764193_at / Fold change /veh 11764193_at / RFU TMEM53 (11763286_at) / Fold change /veh TMEM53 (11763286_at) / RFU MAGEB2 (11727129_at) / Fold change /veh MAGEB2 (11727129_at) / RFU TMEM200A (11744735_a_at) / Fold change /veh TMEM200A (11744735_a_at) / RFU CCDC152 (11751479_a_at) / Fold change /veh CCDC152 (11751479_a_at) / RFU FAM211A (11726209_a_at) / Fold change /veh FAM211A (11726209_a_at) / RFU RGS16 (11746705_a_at) / Fold change /veh RGS16 (11746705_a_at) / RFU VCAN (11755009_s_at) / Fold change /veh VCAN (11755009_s_at) / RFU RHOB (11743442_s_at) / Fold change /veh RHOB (11743442_s_at) / RFU RGS16 (11720943_a_at) / Fold change /veh RGS16 (11720943_a_at) / RFU RGS16 (11720944_at) / Fold change /veh RGS16 (11720944_at) / RFU, VPS4B / Fold change vs veh, VPS4B / RFU, CREB1 / Fold change vs veh, CREB1 / RFU, DNAJC13 / Fold change vs veh, DNAJC13 / RFU, GNAQ / Fold change vs veh, GNAQ / RFU, CDK5R1 / Fold change vs veh, CDK5R1 / RFU, ZRANB3 / Fold change vs veh, ZRANB3 / RFU, CUL4A / Fold change vs veh, CUL4A / RFU, CCNY / Fold change vs veh, CCNY / RFU, UFL1 / Fold change vs veh, UFL1 / RFU, COG3 / Fold change vs veh, COG3 / RFU, DIAPH2 / Fold change vs veh, DIAPH2 / RFU, SKA2 / Fold change vs veh, SKA2 / RFU, AFF3 / Fold change vs veh, AFF3 / RFU, LMF1 / Fold change vs veh, LMF1 / RFU, IPO11 / Fold change vs veh, IPO11 / RFU, DFFB / Fold change vs veh, DFFB / RFU, FOXP1 / Fold change vs veh, FOXP1 / RFU, CARD8 / Fold change vs veh, CARD8 / RFU, STRN3 / Fold change vs veh, STRN3 / RFU, ADK / Fold change vs veh, ADK / RFU, RASSF2 / Fold change vs veh, RASSF2 / RFU, WIPF1 / Fold change vs veh, WIPF1 / RFU, LARP1B / Fold change vs veh, LARP1B / RFU, RASA1 / Fold change vs veh, RASA1 / RFU, RB1 / Fold change vs veh, RB1 / RFU, PPFIA1 / Fold change vs veh, PPFIA1 / RFU, MAT2A / Fold change vs veh, MAT2A / RFU, CCT5 / Fold change vs veh, CCT5 / RFU, WDR92 / Fold change vs veh, WDR92 / RFU, CUX1 / Fold change vs veh, CUX1 / RFU, TTC7A / Fold change vs veh, TTC7A / RFU, TMEM135 / Fold change vs veh, TMEM135 / RFU, DEPTOR / Fold change vs veh, DEPTOR / RFU, CPM / Fold change vs veh, CPM / RFU, DNAJB6 / Fold change vs veh, DNAJB6 / RFU, CACNA2D3 / Fold change vs veh, CACNA2D3 / RFU, DTX4 / Fold change vs veh, DTX4 / RFU, TFCP2 / Fold change vs veh, TFCP2 / RFU, GMCL1 /// GMCL1P1 / Fold change vs veh, GMCL1 /// GMCL1P1 / RFU, AEBP2 / Fold change vs veh, AEBP2 / RFU, SNHG1 /// SNORD22 /// SNORD25 /// SNORD26 /// SNORD27 /// SNORD28 /// SNORD29 /// SNORD31 / Fold change vs veh, SNHG1 /// SNORD22 /// SNORD25 /// SNORD26 /// SNORD27 /// SNORD28 /// SNORD29 /// SNORD31 / Fold change (Aza/veh), C12orf56 (ProbeSet 11735607_a_at) / Fold change (ACY-1035/veh), C12orf56 (ProbeSet 11735607_a_at) / Fold change (Aza/veh), FGFR1OP (ProbeSet 11751329_s_at) / Fold change (ACY-1035/veh), FGFR1OP (ProbeSet 11751329_s_at) / Fold change (Aza/veh), VPS36 (ProbeSet 11739960_a_at) / Fold change (ACY-1035/veh), VPS36 (ProbeSet 11739960_a_at) / RFU SYPL1 (11715823_x_at) / Fold change /veh SYPL1 (11715823_x_at) / RFU IGFBP7 (11715501_s_at) / Fold change /veh IGFBP7 (11715501_s_at) / RFU REEP3 (11722064_at) / Fold change /veh REEP3 (11722064_at) / RFU IGLL1 (11728026_x_at) / Fold change /veh IGLL1 (11728026_x_at): dose or concentration left out as unconfirmed
Details: MV-4-11 cells, 48 hours

Nc1ncn([C@@H]2O[C@H](CO)[C@@H](O)[C@H]2O)c(=O)n1 [azacitidine]
Fold change /veh PRRT2 (11749266_a_at): 0.89
